According to patent US9045440B2, “Desazadesferrothiocin and desazadesferrothiocin polyether analogues as metal chelation agents” (FerroKin Biosciences, Inc., priority 2010, dated 2015):
Where two headings read alike, the source gives them in different places. Values belong to the molecule of their own block, whether it stands above or below them.

Columns and labels:
[1] = mode of iron excretion; cited from earlier work
[2] = cited from earlier work
[3] = rats, 300 μmol/kg intraperitoneally immediately after uranyl acetate; cited from earlier work
[4] = pH 7.4
Description: Measurements were taken via LC/MS.
To each 5 μL aliquot of stock solution of each sample was added 500 μL of PBS pH 7.4 and 500 μL of octanol and a stir bar. […] Stir bars were removed and samples centrifuged at 15,000 g for 15 minutes to separate the phases, and pipette and syringe were used to remove the upper (octanol) and lower (buffer) phases to empty tubes, respectively. Aliquots of 5 μL were taken from upper phases and diluted with 495 μL of methanol. Aliquots of 50 μL were taken from lower phases and diluted with 450 μL of methanol. Reference solutions of progesterone or metopolol were also prepared and tested as standards.

[5] = ratio of ICE in one species (monkey) to the other (rat)

SMILES: COCCOCCOc1ccc(C2=N[C@@](C)(C(=O)O)CS2)c(O)c1 [Example A, (S)-2-(2-hydroxy-4-(2-(2-methoxyethoxy)ethoxy)phenyl)-4-methyl-4,5-dihydrothiazole-4-carboxylic acid]
- Rodent ICE [urine/bile] [1]: [97/3]
- ICE Ratio ([2]; primate (capsule) to rodent): 1.0
- ICE Ratio ([2]; primate (sodium salt) to rodent): 1.1
- Primate ICE [urine/bile] ([2]; given as capsule): [93/7]
- Primate ICE [urine/bile] ([2]; given as sodium salt): [83/17]

SMILES: COCCOCCOCCOc1ccc(C2=N[C@@](C)(C(=O)O)CS2)c(O)c1 [Example B, (S)-2-(2-hydroxy-4-(2-(2-(2-methoxyethoxy)ethoxy)ethoxy)phenyl)-4-methyl-4,5-dihydrothiazole-4-carboxylic acid]
- Rodent ICE [urine/bile] [1]: [90/10]
- Primate ICE [urine/bile] ([2]; mode of iron excretion): [96/4]
- ICE Ratio [2, 5]: 4.6
- Uranium Excretion [urine/bile] [3]: [35/65]

SMILES: COCCOCCOCCOCCOc1ccc(C2=N[C@@](C)(C(=O)O)CS2)c(O)c1 [Example C, (S)-2-(4-(2,5,8,11-tetraoxatridecan-13-yloxy)-2-hydroxyphenyl)-4-methyl-4,5-dihydrothiazole-4-carboxylic acid]
- Rodent ICE [urine/bile] [1]: [99/1]
- Primate ICE [urine/bile] ([2]; mode of iron excretion): [52/48]
- ICE Ratio [2, 5]: 0.8

SMILES: COCCOCCOc1cccc(C2=N[C@@](C)(C(=O)O)CS2)c1O [Example D, (S)-2-(2-hydroxy-3-(2-(2-methoxyethoxy)ethoxy)phenyl)-4-methyl-4,5-dihydrothiazole-4-carboxylic acid]
- Rodent ICE [urine/bile] [1]: [99/1]

SMILES: COCCOCCOCCOc1cccc(C2=N[C@@](C)(C(=O)O)CS2)c1O [Example E, (S)-2-(2-hydroxy-3-(2-(2-(2-methoxyethoxy)ethoxy)ethoxy)phenyl)-4-methyl-4,5-dihydrothiazole-4-carboxylic acid]
- Rodent ICE [urine/bile] [1]: [95/5]
- Primate ICE [urine/bile] ([2]; mode of iron excretion): [95/5]
- ICE Ratio [2, 5]: 2.2

SMILES: COCCOCCOCCOCCOc1cccc(C2=N[C@@](C)(C(=O)O)CS2)c1O [Example F, (S)-2-(3-(2,5,8,11-tetraoxatridecan-13-yloxy)-2-hydroxyphenyl)-4-methyl-4,5-dihydrothiazole-4-carboxylic acid]
- Rodent ICE [urine/bile] [1]: [98/2]
- Primate ICE [urine/bile] ([2]; mode of iron excretion): [25/75]
- ICE Ratio [2, 5]: 0.8

- LogD [4]: −0.27
SMILES: COCCc1ccc(OCC(O)CNC(C)C)cc1 (centres unmarked) [metopolol]
